Data on ten compounds can be found in patent publication EP4703354A1, “COMPOUND AS CCR6 ANTAGONIST, AND PHARMACEUTICAL COMPOSITION AND USE THEREOF” (Wuhan Createrna Science and Technology Co.,Ltd., priority 2023, dated 2024).

Data set [1] can be described thus: in vitro liver microsome metabolic stability, beagle dog. The class given is in vitro ADME. Particulars: Beagle dog liver microsomes, 37°C. An outline of the steps:
(§1)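 Test compound at 1 µM final (100 µM working solution diluted 1:100) incubated at 37°C with liver microsomes in pH 7.4 phosphate buffer with NADP/G6P/G6PDH/MgCl2 regenerating system; sampled 0–30 min, LC-MS/MS vs internal standard. T1/2 = 0.693/k from remaining-fraction decay.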

Another data set addresses T1, human CCR6 (Homo sapiens, UniProt P51684).
T1 construct: expressed in transfected cells; host or cells: HEK293
T1 sequence (P51684 1-374): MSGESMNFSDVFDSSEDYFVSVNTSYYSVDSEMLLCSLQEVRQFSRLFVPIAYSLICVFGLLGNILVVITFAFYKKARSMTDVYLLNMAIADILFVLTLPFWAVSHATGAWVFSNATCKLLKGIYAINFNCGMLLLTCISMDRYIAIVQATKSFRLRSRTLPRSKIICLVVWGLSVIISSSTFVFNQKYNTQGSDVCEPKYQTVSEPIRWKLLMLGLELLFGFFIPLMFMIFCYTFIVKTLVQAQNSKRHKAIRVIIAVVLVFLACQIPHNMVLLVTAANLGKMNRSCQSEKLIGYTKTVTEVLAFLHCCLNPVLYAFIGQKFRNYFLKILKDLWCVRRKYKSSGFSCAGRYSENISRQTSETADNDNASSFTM
Briefly: human CCR6 calcium flux activity (FLIPR, HEK293 cells stably expressing human CCR6, CCL20 stimulation). In kind it is cell-based. Particulars: HEK293 cells stably expressing human CCR6, EC80 human MIP-3 alpha/CCL20; read-out: CCR6 inhibitory activity, IC50. An outline of the steps:
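Compounds preincubated with Fluo-4 Direct-loaded cells 50 min at 37 °C, then 10 min at room temperature, before CCL20 challenge at EC80. Fluorescence (ex 494/em 516 nm) recorded 90 s; max−min signal gives inhibition, four-parameter fit yields IC50.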
A general note: Calcium assays in cells follow changes in intracellular calcium, usually with a dye or a luminescent sensor.

The nature of data set [2]: in vitro liver microsome metabolic stability, human. In kind it is in vitro ADME. Particulars: Human liver microsomes, 37°C. An outline of the steps: as §1
On the technique in general: Liver microsomes are vesicles of endoplasmic reticulum, rich in cytochrome P450 enzymes.

A short description of data set [3]: in vitro liver microsome metabolic stability, mouse. In kind it is in vitro ADME. Particulars: Mouse liver microsomes, 37°C. The method, then:
Preparation of working solutions for test compounds and standards: An appropriate amount of the compound was accurately weighed and dissolved in a corresponding volume of suitable solvent to prepare 1 mM stock solutions of the test compounds and standards. The stock solutions were then diluted with appropriate solvent to obtain 100 µM working solutions of the test compounds, ensuring that the DMSO content in the working solutions remained below 10%.
The internal standard compound testosterone (or tolbutamide) and its corresponding solvent, internal standard concentration (200 ng/mL), were selected based on the properties of the test compound.
• Solution A: 0.1 mol/L K2HPO4 (2.28 g K2HPO4·3H2O was dissolved in 100 mL of double-distilled water); • Solution B: 0.1 mol/L KH2PO4 (1.36 g KH2PO4 was dissolved in 100 mL of double-distilled water); • 80.2 mL of Solution A and 19.8 mL of Solution B were mixed thoroughly, and the pH was adjusted to 7.4.
37.5 mg of glycine was weighed, dissolved in 100 mL of ultrapure water, and adjusted to pH 8.0 with NaOH.
1.25 mg of glucose-6-phosphate dehydrogenase (400 U/mg) was weighed (the specific amount weighed was calculated based on the activity of the purchased glucose-6-phosphate dehydrogenase), dissolved in 1 mL of glycine buffer to a concentration of 500 U/mL, aliquoted into 20 µL per tube, and stored at -20°C for future use.
7.83 mg of NADP, 0.06 mL of D-glucose-6-phosphate (260 mg/mL), and 10.17 mg of MgCl2·6H2O were precisely weighed.
The mixture was dissolved in 1 mL of pure water. The cofactor ratio composition: NADP 10 mM, D-glucose-6-phosphate 60 mM, MgCl2·6H2O 50 mM.
The reaction system (taking a 500 µL system as an example) was composed of the following solution ratios: 416.5 µL phosphate buffer, 5 µL compound working solution, 25 µL liver microsomes, 3.5 µL glucose-6-phosphate dehydrogenase, and 50 µL cofactor solution. The total incubation volume could be adjusted according to experimental requirements.
416.5 µL of phosphate buffer was taken, 25 µL of liver microsomes, 3.5 µL of glucose-6-phosphate dehydrogenase, and 50 µL of cofactor solution were added, vortexed twice to mix, and preincubated in a 37°C water bath for 5 minutes. Then, 5 µL of the test compound working solution was added, vortexed twice to mix, each time for 2-3 seconds, and placed in a 37°C water bath to initiate the reaction, with two parallel samples set. At 0.5 min, 1 min, 2 min, 5 min, 15 min, and 30 min after the reaction, 50 µL of the mixture was taken and added to centrifuge tubes containing 200 µL of 0°C pre-cooled internal standard working solution to terminate the reaction, vortexed for 1 minute to mix, and centrifuged at 13,000 rpm for 10 minutes in a 4°C pre-cooled high-speed centrifuge. The supernatant was collected for analysis. After the compound was added and vortex-mixed, 50 µL of the mixture was rapidly transferred to a centrifuge tube containing 200 µL of a pre-cooled (0°C) internal standard working solution to terminate the reaction, vortex-mixed for 1 minute, and used as the relative zero-point sample (relative to the standard group). The sample was then placed into a 37°C water bath to initiate the reaction, and timing was started.
The sample analysis of the test compound was performed using the liquid chromatography-tandem mass spectrometry (LCMS/MS) method. The semi-quantitative determination was performed using the ratio of the analyte peak area to the internal standard peak area. The retention times of the analyte and internal standard, chromatogram acquisition, and chromatogram integration were processed using Analyst software.
The in vitro elimination rate constant k of the test compound and the control compound was determined by converting the ratio of the peak area of the test compound to the internal standard into the remaining rate, and T1/2 was then calculated according to the following formula. T1/2 = (Ln2)/(k) = (0.693)/(k) [formula] Table 3. […]

The nature of data set [4]: in vitro liver microsome metabolic stability, rat. The class given is in vitro ADME. The conditions noted are these: Rat liver microsomes, 37°C. An outline of the steps: as §1
The nature of data set [5]: in vivo pharmacokinetic study in SD rats. Particulars: rat; for bioavailability: 1 mg/kg PO vs 1 mg/kg IV, read-out: Oral bioavailability F (%); for AUC(0-t) / Cmax / half-life: 1 mg/kg. The method in brief:
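Male SD rats (180-200 g), 3 per route: single fasted oral gavage in 1% Tween 80 or tail-vein IV bolus in 50% PEG400. Orbital blood into EDTA-K2 sampled to 8 h; plasma analysed and PK parameters derived by non-compartmental analysis.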

Like-named read-outs stand apart in the source and are kept apart here.

By IC50 is commonly meant the point on the concentration scale where inhibition reaches its midpoint. In the case of `CN(C)C(=O)c1nccc(Nc2c(NC(c3ncccn3)C3(C)CCCC3)c(=O)c2=O)c1O` (racemic) [compound 017], the “Liver microsome T1-2 (min) Beagle dog” value in data set [1] was found to be 848.60 min. In addition, on human CCR6, the IC50 amounted to 10 nM. Further, the “Liver microsome T1-2 (min) Human” value in data set [2] came out at 1176.24 min. Besides, in data set [3], the “Liver microsome T1-2 (min) Mouse” value is listed as 1273.80 min. Moreover, the “Liver microsome T1-2 (min) Rat” value in data set [4] was found to be 324.15 min.
With `Cc1cccnc1[C@@H](Nc1c(Nc2ccnc(C(=O)N(C)C)c2O)c(=O)c1=O)[C@]1(C)CCC(F)(F)C1` (single isomer, unassigned) [125D], in data set [1], the “Liver microsome T1-2 (min) Beagle dog” value came out at 220.11 min. Moreover, in data set [2], the “Liver microsome T1-2 (min) Human” value turned out to be 572.07 min. Moreover, in data set [3], the “Liver microsome T1-2 (min) Mouse” value is on record as 19686.4 min. Further, the “Liver microsome T1-2 (min) Rat” value in data set [4] came to 83.07 min.
For `Cc1cccnc1[C@@H](Nc1c(Nc2ccnc(C(=O)N(C)C)c2O)c(=O)c1=O)[C@@]1(C)CCC(F)(F)C1` [125C], the “Liver microsome T1-2 (min) Beagle dog” value in data set [1] turned out to be 222.01 min. In addition, the “Liver microsome T1-2 (min) Human” value in data set [2] is recorded as 343.09 min. Besides, in data set [3], the “Liver microsome T1-2 (min) Mouse” value was 550.74 min. Moreover, the “Liver microsome T1-2 (min) Rat” value in data set [4] was found to be 32.18 min.
As for `CN(C)C(=O)c1nccc(Nc2c(N[C@@H](c3cccc(F)n3)C3(C)CCCC3)c(=O)c2=O)c1O` [compound 002, (R)-4-((2-(((6-fluoropyridin-2-yl)(1-methylcyclopentyl)methyl)amino)-3,4-dioxocyclobut-1-en-1-yl)amino)-3-hydroxy-N,N-dimethylpicolinamide], the “Liver microsome T1-2 (min) Beagle dog” value in data set [1] was found to be 202.32 min. Also, at human CCR6, the IC50 was determined as 7 nM. In addition, in data set [2], the “Liver microsome T1-2 (min) Human” value was determined as 281.53 min. Further, the “Liver microsome T1-2 (min) Mouse” value in data set [3] came out at 1127.82 min. Moreover, the “Liver microsome T1-2 (min) Rat” value in data set [4] amounted to 85.28 min.
As for `CN(C)C(=O)c1nccc(Nc2c(N[C@@H](c3ccccn3)C3(C)CCCC3)c(=O)c2=O)c1O` [compound 004, (R)-3-hydroxy-N,N-dimethyl-4-((2-(((1-methylcyclopentyl)(pyridin-2-yl)methyl)amino)-3,4-dioxocyclobut-1-en-1-yl)amino)picolinamide], the “Liver microsome T1-2 (min) Beagle dog” value in data set [1] was determined as 320.98 min. For the same compound, the IC50 at human CCR6 worked out at 12.3 nM. The “Liver microsome T1-2 (min) Human” value in data set [2] came out at 672.88 min. Moreover, the “Liver microsome T1-2 (min) Mouse” value in data set [3] amounted to 6368.42 min. The “Liver microsome T1-2 (min) Rat” value in data set [4] amounted to 90.26 min.
Consider `CN(C)C(=O)c1nccc(Nc2c(N[C@@H](c3cc(F)cc(F)n3)C3(C)CCCC3)c(=O)c2=O)c1O` [compound 022, (R)-4-((2-(((4,6-difluoropyridin-2-yl)(1-methylcyclopentyl)methyl)amino)-3,4-dioxocyclobut-1-en-1-yl)amino)-3-hydroxy-N,N-dimethylpicolinamide], for which the “Liver microsome T1-2 (min) Beagle dog” value in data set [1] was 271.86 min. Besides, the IC50 on human CCR6 worked out at 7.4 nM. The “Liver microsome T1-2 (min) Human” value in data set [2] is 271.15 min. In addition, the “Liver microsome T1-2 (min) Mouse” value in data set [3] is recorded as 1925.01 min. Also, the “Liver microsome T1-2 (min) Rat” value in data set [4] was 116.86 min.
As to `CN(C)C(=O)c1nccc(Nc2c(NC(c3nc(F)ccc3F)C3(C)CC(F)(F)CO3)c(=O)c2=O)c1O` (stereo not shown) [compound 062, 4-((2-(((4,4-difluoro-2-methyltetrahydrofuran-2-yl)(3,6-difluoropyridin-2-yl)methyl)amino)-3,4-dioxocyclobut-1-en-1-yl)amino)-3-hydroxy-N,N-dimethylpicolinamide], the “Liver microsome T1-2 (min) Beagle dog” value in data set [1] came out at 1250.74 min. Further, on human CCR6, the IC50 worked out at 32.9 nM. Further, the “Liver microsome T1-2 (min) Human” value in data set [2] was 1048.05 min. In data set [3], the “Liver microsome T1-2 (min) Mouse” value turned out to be 228.33 min. For the same compound, the “Liver microsome T1-2 (min) Rat” value in data set [4] is recorded as 801.17 min.
The like results for `Cc1cc(F)cnc1[C@H](Nc1c(Nc2ccnc(C(=O)N(C)C)c2O)c(=O)c1=O)C1(C)CCCC1` [compound 065, (R)-4-((2-(((5-fluoro-3-methylpyridin-2-yl)(1-methylcyclopentyl)methyl)amino)-3,4-dioxocyclobut-1-en-1-yl)amino)-3-hydroxy-N,N-dimethylpicolinamide] were, in that order, 200.21 min, 3.9 nM, 197.68 min, at least 120 min and 39.70 min.
As usually defined, the bioavailability is dose-corrected exposure relative to a reference, in per cent. For orientation: AUC(0-t) means the area under the concentration-time curve up to a stated or last time point. Read a low AUC(0-t) as low exposure. By Cmax is commonly meant the peak of the concentration-time curve. As a reminder, the half-life is the time in which the quantity being followed falls by half. A low value points to fast loss. On to `CN(C)C(=O)c1nccc(Nc2c(NC(C#CC3CCC3)C3(C)CC(F)(F)CO3)c(=O)c2=O)c1O` (stereo not shown) [compound 110], for which the “Liver microsome T1-2 (min) Beagle dog” value in data set [1] worked out at 369.92 min. Also, the bioavailability in data set [5] (in vivo) was 60.2%. In addition, in data set [5] (in vivo, IV), the AUC(0-t) came out at 739 ng·h/mL, the Cmax was determined as 3780 ng/mL and the half-life was 17.4 min. Moreover, in data set [5] (in vivo, PO), the AUC(0-t) was 444 ng·h/mL, the Cmax worked out at 268 ng/mL and the half-life was 57.6 min. The “Liver microsome T1-2 (min) Human” value in data set [2] is 324.84 min. Moreover, the “Liver microsome T1-2 (min) Mouse” value in data set [3] is listed as 1846.01 min. Moreover, the “Liver microsome T1-2 (min) Rat” value in data set [4] was determined as 97.61 min.
As to `CN(C)C(=O)c1nccc(Nc2c(NC(c3nc(F)ccc3F)C3(C)CC4CC4C3)c(=O)c2=O)c1O` (stereo not shown) [compound 126, 4-((2-(((3,6-difluoropyridin-2-yl)(3-methylbicyclo[3.1.0]hexan-3-yl)methyl)amino)-3,4-dioxocyclobut-1-en-1-yl)amino)-3-hydroxy-N,N-dimethylpicolinamide], the “Liver microsome T1-2 (min) Beagle dog” value in data set [1] is given as 331.52 min. Moreover, in data set [5] (male, plasma), the bioavailability was determined as 26.9%. Besides, the AUC(0-t) is 1550 ng·h/mL in data set [5] (male, plasma, IV) and 417 ng·h/mL in data set [5] (male, plasma, PO). Besides, the Cmax in data set [5] (male, plasma, IV) is 3900 ng/mL; in data set [5] (male, plasma, PO), 266 ng/mL. Also, the “Liver microsome T1-2 (min) Human” value in data set [2] came to 531.62 min. Further, the “Liver microsome T1-2 (min) Mouse” value in data set [3] is at least 120 min. For the same compound, the “Liver microsome T1-2 (min) Rat” value in data set [4] amounted to 58.22 min.
